Test results from ChEMBL document CHEMBL4825757, “Optimization of 4,6-Disubstituted Pyrido[3,2-d]pyrimidines as Dual MNK/PIM Inhibitors to Inhibit Leukemia Cell Growth” (J Med Chem, 2021).
Activity calls are given as the source filed them. The rule behind the calls is not given here.

Experiments:
MOLM-13 [1] = test: Downregulation of cyclin-D1 levels in human MOLM-13 cells at 1 to 2 uM incubated for 12 hrs by western blot analysis; assay type: functional, cell-based; details: dose 1-2 µM
MOLM-13 [2] = test: Induction of apoptosis in human MOLM-13 cells assessed as early apoptotic cells at 1 uM incubated for 12 hrs by annexin-V and propidium iodide staining based flow cytometry analysis (reference value: 5.40%); assay type: functional
[3] = AUC (0 to infinity) in Sprague Dawley rat at 2 mg/kg, iv measured after 24 hrs; assay type: ADME, organism-based; set-up: route intravenous, time 24 hrs, dose 2 mg/kg; details: in vivo
[4] = biological target: T1, Serine/threonine-protein kinase pim-1 (Homo sapiens, UniProt P11309); test: Inhibition of wild-type human partial length PIM1 (A15 to K313 residues) expressed in bacterial expression system at 1 uM by Kinomescan method relative to control
MOLM-13 [5] = test: Induction of apoptosis in human MOLM-13 cells assessed as early apoptotic cells at 2 uM incubated for 12 hrs by annexin-V and propidium iodide staining based flow cytometry analysis (reference value: 5.40%); assay type: functional
[6] = Toxicity in NOD/SCID mouse xenografted with human MOLM-13 cells assessed as abnormal changes in heart at 5 to 10 mg/kg, ip daily for 2 weeks by hematoxylin-eosin staining based histological analysis; assay type: organism-based; details: in vivo, 336 h, dose 5-10 mg/kg
MOLM-13 [7] = test: Antitumor activity against human MOLM-13 cells xenografted in NOD/SCID mouse assessed as decrease in 4EBP1 phosphorylation at 5 to 10 mg/kg, ip daily for 2 weeks by western blot analysis; assay type: functional, organism-based; details: dose 5-10 mg/kg
[8] = biological target: T2, MAP kinase-interacting serine/threonine-protein kinase 1 (Homo sapiens, UniProt Q9BUB5); test: Inhibition of MKN1 (unknown origin) at 1 uM in presence of ATP by HTRF assay
[9] = biological target: Serine/threonine-protein kinase pim-3 (Homo sapiens, UniProt Q86V86); test: Inhibition of recombinant human Pim3 (2 to end residues) using RSRHSSYPAGT as substrate incubated for 40 mins in presence of [gamma33P]ATP by scintillation counting based radiometry assay
MOLM-13 [10] = test: Antitumor activity against human MOLM-13 cells xenografted in NOD/SCID mouse assessed as decrease in eIF4E phosphorylation at 10 mg/kg, ip daily for 2 weeks by western blot analysis; assay type: functional, organism-based
[11] = biological target: T2, MAP kinase-interacting serine/threonine-protein kinase 1; test: Inhibition of MKN1 (unknown origin) in presence of ATP by HTRF assay
[12] = biological target: Serine/threonine-protein kinase pim-2 (Homo sapiens, UniProt Q9P1W9); test: Inhibition of recombinant human Pim2 (2 to end residues) using RSRHSSYPAGT as substrate incubated for 40 mins in presence of [gamma33P]ATP by scintillation counting based radiometry assay
[13] = biological target: Epidermal growth factor receptor (Homo sapiens, UniProt P00533, T790M); test: Inhibition of recombinant human EGFR T790M mutant (696 to end residues) using GGMEDIYFEFMGG as substrate after 40 mins in presence of [gamma-33ATP] by radiometric scintillation counting analysis
[14] = Toxicity in NOD/SCID mouse xenografted with human MOLM-13 cells assessed as abnormal changes in spleen at 5 to 10 mg/kg, ip daily for 2 weeks by hematoxylin-eosin staining based histological analysis; assay type: organism-based; details: in vivo, 336 h, dose 5-10 mg/kg
[15] = biological target: MAP kinase-interacting serine/threonine-protein kinase 2 (Homo sapiens, UniProt Q9HBH9); test: Inhibition of MKN2 (unknown origin) in presence of ATP by HTRF assay
MOLM-13 [16] = test: Downregulation of c-myc levels in human MOLM-13 cells at 1 to 2 uM incubated for 12 hrs by western blot analysis; assay type: functional, cell-based; details: dose 1-2 µM
[17] = biological target: T2, MAP kinase-interacting serine/threonine-protein kinase 1; test: Inhibition of wild type human full length MKN1 (M1 to L424) expressed in mammalian expression system at 1 uM by Kinomescan method relative to control
K562 [18] = test: Downregulation of c-myc levels in human K562 cells at 1 to 2 uM incubated for 24 hrs by western blot analysis; assay type: functional, cell-based; details: dose 1-2 µM
MOLM-13 [19] = test: Antitumor activity against human MOLM-13 cells xenografted in NOD/SCID mouse assessed as decrease in cyclin-D1 levels at 10 mg/kg, ip daily for 2 weeks by western blot analysis; assay type: functional, organism-based
K562 [20] = test: Downregulation of cyclin-D1 levels in human K562 cells at 1 to 2 uM incubated for 24 hrs by western blot analysis; assay type: functional, cell-based; details: dose 1-2 µM
[21] = Toxicity in NOD/SCID mouse xenografted with human MOLM-13 cells assessed as abnormal changes in kidney at 5 to 10 mg/kg, ip daily for 2 weeks by hematoxylin-eosin staining based histological analysis; assay type: organism-based; details: in vivo, 336 h, dose 5-10 mg/kg
MOLM-13 [22] = test: Induction of apoptosis in human MOLM-13 cells assessed as live cells at 1 uM incubated for 12 hrs by annexin-V and propidium iodide staining based flow cytometry analysis (reference value: 91.49%); assay type: functional
[23] = biological target: MAP kinase-interacting serine/threonine-protein kinase 1/2 (Homo sapiens) (UniProt Q9HBH9+Q9BUB5); test: Inhibition of MNK1/MNK2 in human K562 cells assessed as reduction in eIF4E phosphorylation at 1 to 2 uM incubated for 24 hrs by western blot analysis; assay type: cell-based; details: dose 1-2 µM
[24] = biological target: T1, Serine/threonine-protein kinase pim-1; test: Inhibition of full length recombinant human PIM1 using KKRNRTLTV as substrate incubated for 40 mins in presence of [gamma33P]ATP by scintillation counting based radiometry assay
HL-60 = test: Antiproliferative activity against human HL-60 cells assessed as reduction of cell viability incubated for 72 hrs by trypan blue staining based cell counting analysis; assay type: functional
[25] = Cmax in Sprague Dawley rat at 10 mg/kg, ip measured after 24 hrs; assay type: ADME, organism-based; set-up: route intraperitoneal, time 24 hrs, dose 10 mg/kg; details: in vivo
MOLM-13 [26] = test: Antiproliferative activity against human MOLM13 cells assessed as reduction of cell viability incubated for 72 hrs by trypan blue staining based cell counting analysis; assay type: functional
MOLM-13 [27] = test: Antitumor activity against human MOLM-13 cells xenografted in NOD/SCID mouse assessed as decrease in BAD phosphorylation at 10 mg/kg, ip daily for 2 weeks by western blot analysis; assay type: functional, organism-based
[28] = biological target: Epidermal growth factor receptor (Homo sapiens, UniProt P00533); test: Inhibition of wild-type human partial length EGFR (R669 to V1011 residues) expressed in bacterial expression system at 1 uM by Kinomescan method relative to control
MOLM-13 [29] = test: Induction of cell cycle arrest in human MOLM-13 cells assessed as G1 phase at 1 uM incubated for 12 hr by propidium iodide based flow cytometry analysis (Rvb= 51.29%); assay type: functional
MOLM-13 [30] = test: Induction of apoptosis in human MOLM-13 cells assessed as late apoptotic cells at 2 uM incubated for 12 hrs by annexin-V and propidium iodide staining based flow cytometry analysis (reference value: 3.03%); assay type: functional
[31] = Metabolic stability in human liver microsomes assessed as half life preincubated for 10 mins followed by NADPH addition and further incubated upto 60 mins by LC-MS/MS analysis; assay type: ADME, Microsome; details: time <=70 min
[32] = biological target: Serine/threonine-protein kinase PIM (Homo sapiens) (UniProt P11309+Q9P1W9+Q86V86); test: Inhibition of PIM in human MOLM-13 cells assessed as reduction of BAD phosphorylation at 1 to 2 uM incubated for 12 hrs by western blot analysis; assay type: cell-based; details: dose 1-2 µM
[33] = Half life in Sprague Dawley rat at 2 mg/kg, iv measured after 24 hrs; assay type: ADME, organism-based; details: in vivo

- AUC(0-inf) [3]: 1720 ng·h/mL
- inhibition [4]: 96%
- inhibition [8]: 97%
- IC50 [9]: 774 nM
- IC50 [11]: 1 nM
- IC50 [12]: 232 nM
- IC50 [13]: > 10 µM
- IC50 [15]: 7 nM
- inhibition [17]: 100%
- inhibition [23]: Dose-Dependent Effect
- IC50 [24]: 43 nM
- GI50 (HL-60): 1500 nM
- Cmax [25]: 405 ng/mL
- GI50 (MOLM-13 [26]): 1230 nM
- inhibition [28]: 73%
- half-life [31]: 204 min
- inhibition [32]: Active
- half-life [33]: 403 min
Compound: CC(C)Oc1cc(F)ccc1Nc1ncnc2ccc(-c3ccc(C(=O)N4CCNCC4)cc3)nc12
- Activity (MOLM-13 [1]): Active
- Activity (MOLM-13 [2]): 6.83%
- Activity (MOLM-13 [5]): 29.57%
- Activity [6]: Non-Toxic
- Activity (MOLM-13 [7]): Active
- Activity (MOLM-13 [10]): Active
- Activity [14]: Non-Toxic
- Activity (MOLM-13 [16]): Active
- Activity (K562 [18]): Active
- Activity (MOLM-13 [19]): Active
- Activity (K562 [20]): Active
- Activity [21]: Non-Toxic
- Activity (MOLM-13 [22]): 90.09%
- Activity (MOLM-13 [27]): Active
- Activity (MOLM-13 [29]): 61.13%
- Activity (MOLM-13 [30]): 8.2%
